Source: patent US20230111310A1, “CARBOXYLIC ACID DERIVATIVE-SUBSTITUTED IMINO ARYL COMPOUND, PREPARATION METHOD THEREFOR, HERBICIDAL COMPOSITION AND USE THEREOF” (Qingdao Kingagroot Chemical Compound Co., Ltd., priority 2020, published 2023)

What was measured:
Type in all cases: in vivo
Soybeans = experiment: Pre-emergence stage, crop selectivity; details: 30 g/ha, 4 weeks
In short: (§1)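 Test compounds were dissolved in acetone with tween 80, diluted with water and sprayed right after sowing, with seeds covered by 0.5-2 cm of soil. Rates were 500 to 7.5 g/ha. Growth control was scored against activity-level criteria after 4 weeks in the greenhouse.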

Peanut = experiment: Pre-emergence stage, crop selectivity; details: 30 g/ha, 4 weeks
In short: as §1

corn = experiment: Pre-emergence stage, crop selectivity; details: 30 g/ha, 4 weeks
In short: as §1

cotton = experiment: Pre-emergence stage, crop selectivity; details: 30 g/ha, 4 weeks
In short: as §1

Echinochloa crusgalli = experiment: Weeding effect in post-emergence stage; details: Dose 15 g/ha; fresh weight control rate level
In short: (§2)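 Weeds were treated post-emergence at 2-3 leaves with compound doses from 7.5 up to 500 g/ha, formulated in acetone–Tween 80 with methyl oleate synergist. Efficacy was assessed as growth control after 3 weeks.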

Eleusine indica = experiment: Weeding effect in post-emergence stage; details: Dose 15 g/ha; fresh weight control rate level
In short: as §2

Setaria viridis [1] = experiment: Weeding effect in post-emergence stage; details: Dose 15 g/ha; fresh weight control rate level
In short: as §2

Abutilon theophrasti [2] = experiment: Weeding effect in post-emergence stage; details: Dose 15 g/ha; fresh weight control rate level
In short: as §2

Digitaria sanguinalis = experiment: Weeding effect in post-emergence stage; details: Dose 15 g/ha; fresh weight control rate level
In short: as §2

Alopecurus japonicus = experiment: Weeding effect in post-emergence stage; details: Dose 15 g/ha; fresh weight control rate level
In short: as §2

Setaria viridis [3] = experiment: Weeding effect in pre-emergence stage; details: 30 g/ha, 4 weeks
In short: as §1

Capsella bursa-pastoris = experiment: Weeding effect in pre-emergence stage; details: 30 g/ha, 4 weeks
In short: as §1

Amaranthus retroflexus = experiment: Weeding effect in pre-emergence stage; details: 30 g/ha, 4 weeks
In short: as §1

Abutilon theophrasti [4] = experiment: Weeding effect in pre-emergence stage; details: 30 g/ha, 4 weeks
In short: as §1

Veronica didyma Tenore = experiment: Weeding effect in pre-emergence stage; details: 30 g/ha, 4 weeks
In short: as §1

Descurainia sophia = experiment: Weeding effect in pre-emergence stage; details: 30 g/ha, 4 weeks
In short: as §1

Compound	plant damage level Soybeans (Soybeans)	plant damage level Peanut (Peanut)	plant damage level Corn (corn)	plant damage level Cotton (cotton)	Weeding effect in post-emergence stage, Echinochloa crusgalli (level) (Echinochloa crusgalli)	Weeding effect in post-emergence stage, Eleusine indica (level) (Eleusine indica)	Weeding effect in post-emergence stage, Setaria viridis (level) (Setaria viridis [1])	Weeding effect in post-emergence stage, Abutilon theophrasti (level) (Abutilon theophrasti [2])	Weeding effect in post-emergence stage, Digitaria sanguinalis (level) (Digitaria sanguinalis)	Weeding effect in post-emergence stage, Alopecurus japonicus (level) (Alopecurus japonicus)	activity level (growth control rate) Setaria viridis (Setaria viridis [3])	activity level (growth control rate) Capsella bursa-pastoris (Capsella bursa-pastoris)	activity level (growth control rate) Amaranthus retroflexus (Amaranthus retroflexus)	activity level (growth control rate) Abutilon theophrasti (Abutilon theophrasti [4])	activity level (growth control rate) Veronica didyma Tenore (Veronica didyma Tenore)	activity level (growth control rate) Descurainia sophia (Descurainia sophia)
CCSC(=O)[C@@H](C)O/N=C/c1cc(-n2c(=O)cc(C(F)(F)F)n(C)c2=O)c(F)cc1Cl [398(R)]	0 (Level 0: growth control rate is less than 5%)	0 (Level 0: growth control rate is less than 5%)	0 (Level 0: growth control rate is less than 5%)	0 (Level 0: growth control rate is less than 5%)	5 (Level 5: growth control rate is above 85%)	5 (Level 5: growth control rate is above 85%)	5 (Level 5: growth control rate is above 85%)	5 (Level 5: growth control rate is above 85%)	5 (Level 5: growth control rate is above 85%)	5 (Level 5: growth control rate is above 85%)	5 (Level 5: growth control rate is above 85%)	5 (Level 5: growth control rate is above 85%)	5 (Level 5: growth control rate is above 85%)	5 (Level 5: growth control rate is above 85%)	5 (Level 5: growth control rate is above 85%)	5 (Level 5: growth control rate is above 85%)
COC(=O)[C@@H](C)O/N=C/c1cc(-n2c(=O)c(Cl)c(C(F)(F)F)n(C)c2=O)c(F)cc1Cl [431(R)]	0 (Level 0: growth control rate is less than 5%)	0 (Level 0: growth control rate is less than 5%)	0 (Level 0: growth control rate is less than 5%)	0 (Level 0: growth control rate is less than 5%)	5 (Level 5: growth control rate is above 85%)	5 (Level 5: growth control rate is above 85%)	5 (Level 5: growth control rate is above 85%)	5 (Level 5: growth control rate is above 85%)	5 (Level 5: growth control rate is above 85%)	5 (Level 5: growth control rate is above 85%)	5 (Level 5: growth control rate is above 85%)	5 (Level 5: growth control rate is above 85%)	5 (Level 5: growth control rate is above 85%)	5 (Level 5: growth control rate is above 85%)	5 (Level 5: growth control rate is above 85%)	5 (Level 5: growth control rate is above 85%)
